Experimental data as given in US20230000869A1, “NOVEL ALK2 INHIBITORS AND METHODS FOR INHIBITING BMP SIGNALING” (The Brigham and Women's Hospital, Inc., priority 2017, published 2023).

Key:
TGFβ = experiment: Luciferase reporter gene assay for TGFβ activity (HEK293T SBE-Luc SMAD2/3 reporter, TGFβ agonist); type: cell-based; conditions: Homo sapiens, HEK-293T, TGFβ 5 ng/mL
Procedure: (§1) All cell lines were cultured in DMEM, supplemented with […] and 1% Pen/Strep. All media reagents were obtained from Gibco. BMP6, BMP9, and TGFβ were obtained from R&D Systems. C2C12-BRE and HEK293T-SBE were kept in selection with 400 ug/mL G418 from Invivogen.
(§2) In this reporter gene cell based ALK2 and TGFβ assay, the C2C12 cell line was employed for the measurement of ALK2 activity, using a BRE-Luc SMAD1/5/8 reporter and BMP6 as the agonist. The HEK293T cell line was employed to measure TGFβ activity, using a SBE-Luc SMAD2/3 reporter and TGFβ as the agonist. Luciferase reporter assays were read using Promega Steady-Glo Luciferase Assay System.
(§3) Cells were plated in 96 well white clear bottom assay plates at 10 k cells/well for C2C12-BRE, 15 k cells/well for HEK293-SBE in DMEM containing 2% FBS 1% P/S. Cells were given a minimum of 4 hours in incubator at 37° C./5% CO2 to adhere prior to further treatment. Compounds were diluted in DMSO to a 10-point dilution curve and added to the plate to reach the following final concentrations: 10000, 3000, 1000, 300, 100, and 30 nM in the HEK293-SBE assay and 1000, 300, 100, 30, 10, 3, 1, 0.3 nM in the C2C12-BRE assay. Negative and positive control wells received 2 μL DMSO as vehicle treatment. Plates were returned to incubator for 45 minutes and then BMP6 and TGFB were added to a final concentration of 50 ng/mL and 5 ng/mL, respectively. Plates were returned to the incubator and left overnight. After a minimum of 18 hours post BMP6/TGFβ addition, the plates were read using Promega Steady-Glo Luciferase Assay System. A 1:1 mixture of prepared steady-glo and phenol free DMEM was prepared, and 50 μL/well was added to the assay plates whose media had been flicked off. Plates were given 10 minutes post steady-glo addition before luminescence was read on a Spectramax M5e microplate reader. Negative control wells were averaged and subtracted from all other wells on the plate. Inhibition was calculated as the percent of signal loss compared to the averaged positive control wells.

ALK2 = target: T1, ALK2 (Mus musculus, UniProt P37172); experiment: Luciferase reporter gene assay for ALK2 activity (C2C12 BRE-Luc SMAD1/5/8 reporter, BMP6 agonist); type: cell-based; conditions: BMP6 50 ng/mL
T1 construct: endogenous in cells; host or cells: C2C12-BRE (BRE-Luc reporter line, G418 selection)
T1 sequence (P37172 21-509): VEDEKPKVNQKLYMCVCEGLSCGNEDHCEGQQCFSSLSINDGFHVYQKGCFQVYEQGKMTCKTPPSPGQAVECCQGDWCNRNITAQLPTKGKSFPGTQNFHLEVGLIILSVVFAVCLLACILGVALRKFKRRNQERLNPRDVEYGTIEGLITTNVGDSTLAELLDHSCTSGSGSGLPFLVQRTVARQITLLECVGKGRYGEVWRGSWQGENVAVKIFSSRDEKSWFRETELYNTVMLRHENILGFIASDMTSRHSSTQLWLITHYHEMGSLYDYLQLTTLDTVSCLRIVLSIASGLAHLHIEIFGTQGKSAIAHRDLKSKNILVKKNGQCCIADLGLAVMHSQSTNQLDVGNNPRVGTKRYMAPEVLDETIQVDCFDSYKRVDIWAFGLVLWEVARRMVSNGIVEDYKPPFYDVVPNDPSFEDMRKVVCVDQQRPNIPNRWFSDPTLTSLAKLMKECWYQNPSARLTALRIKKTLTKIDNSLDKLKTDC
Procedure: as §1, §2, §3

Row | SMILES | IC50 (TGFβ) [nM] | IC50 (ALK2) [nM]
1 | CN1CCN(C2CCN(c3cnc4c(-c5ccnc6ccc(C#N)cc56)cnn4c3)CC2)CC1 [Compound 234] | > 1000 | > 1000
2 | CC(=O)Nc1ccc2nccc(-c3cnn4cc(N5CCC(N6CCN(C)CC6)CC5)cnc34)c2c1 [Compound 281] | > 3000 | > 3000
3 | CN1CCN(C2CCN(c3cnc4c(-c5ccncc5)cnn4c3)CC2)CC1 [Compound 277] | > 3000 | > 1000
4 | CN1CCN(C2CN(c3cnc4c(-c5cccc6c(C(N)=O)cccc56)cnn4c3)C2)CC1 [Compound 307] | > 3000 | > 1000
5 | COc1cc2c(-c3cnc4cc(N5CCC(N6CCN(C)CC6)CC5)ccn34)ccnc2cc1F [Compound 351] | > 3000 | 372
6 | CN1CCN(C2CCN(c3cnc4c(-c5ccnc6cc(C(F)(F)F)ccc56)cnn4c3)CC2)CC1 [Compound 257] | > 1000 | > 1000
7 | [2H]C([2H])([2H])Oc1cc2c(-c3cnn4cc(N5CCC(N6CCN(C)CC6)CC5)cnc34)ccnc2cc1F [Compound 346] | 686 | 18
8 | COc1ccc2nccc(-c3cnn4cc(N5CCC(N6CCN(C)CC6)CC5)cnc34)c2n1 [Compound 60, 2-methoxy-8-[6-[4-(4-methylpiperazin-1-yl)-1-piperidyl]pyrazolo[1,5-a]pyrimidin-3-yl]-1,5-naphthyridine] | > 3000 | 42
9 | Cc1cc(-c2cnn3cc(N4CCC(N5CCN(C)CC5)CC4)cc(OC4CCOCC4)c23)c2ccccc2n1 [Compound 223] | > 3000 | 272
10 | COc1cc2c(-c3cnn4cc(N5CCC(N6CCN(C)CC6)C(C)C5)cnc34)ccnc2cc1F (stereo not drawn) [Compound 61] | > 3000 | > 1000
11 | CNC(=O)c1cc(-c2cnn3cc(N4CCC(N5CCN(C)CC5)CC4)cnc23)ccn1 [Compound 258] | 964 | 197
12 | COc1ccc2c(-c3cnn4cc(N5CCC(N6CCN(C)CC6)CC5)cnc34)ccnc2c1 [Compound 254] | > 1000 | 244
13 | Cc1ccc2nccc(-c3cnn4cc(N5CCC(N6CCOCC6)CC5)cnc34)c2c1 [Compound 341] | 771 | 15
14 | COc1cc2c(-c3cnn4cc(N5C[C@@H]6C(N(C)C)[C@@H]6C5)cnc34)ccnc2cc1F (stereo partly drawn) [Example 297] | > 1000 | 21
15 | COc1cc2c(-c3cnn4cc(N5CCC(N6CCN(C)CC(F)(F)C6)CC5)cnc34)ccnc2cc1F [Compound 206] | 817 | 356
16 | COc1cc2c(-c3cnn4cc(N5CCC(N6CCN(C)CC6C)CC5)cnc34)ccnc2cc1F (stereo not drawn) [Compound 58, 4-[6-[4-(2,4-dimethylpiperazin-1-yl)-1-piperidyl]pyrazolo[1,5-a]pyrimidin-3-yl]-7-fluoro-6-methoxy-quinoline] | 970 | 377
17 | COc1cc2c(-c3cnn4cc(N5CCC(N6CCN(C)CC6)CC5)cc(OC5CCOCC5)c34)ccnc2cc1F [Compound 224] | > 3000 | > 1000
18 | CN1CCN(C2CCN(c3cnc4c(-c5ccnc6ccc(Cl)cc56)cnn4c3)CC2)CC1 [Compound 241] | > 1000 | 92
19 | CC(=O)N1CCC(N2CCN(c3cnc4c(-c5ccnc6ccccc56)cnn4c3)CC2)CC1 [Compound 81] | > 3000 | > 3000
20 | COc1cc2c(-c3cnn4cc(N5CCC(N6CC[N+](C)([O-])CC6)CC5)cnc34)ccnc2cc1F [Compound 43] | 1920 | 631
21 | CN1CCN(C2CCN(c3cnc4c(-c5ccnc6ccc(N(C)C)cc56)cnn4c3)CC2)CC1 [Compound 280] | > 2000 | 26

Results, then the molecule that gave them:

Row | IC50 (TGFβ) [nM] | IC50 (ALK2) [nM] | SMILES
22 | 410 | 60 | COc1cc2c(-c3cnn4cc(N5CCC(N6CCC(C)(N)CC6)CC5)cnc34)ccnc2cc1F [Compound 51]
23 | 623 | 395 | Cc1cc(-c2cnn3cc(N4CCOCC4)cnc23)c2ccccc2n1 [Compound 197]
24 | 514 | 22 | Cc1ccc2nccc(-c3cnn4cc(N5CCC(N6CCN(C)CC6)CC5)cnc34)c2c1 [Compound 185]
25 | 359 | 507 | COc1cc2c(-c3cnn4cc(N5CCN(c6ccncc6)CC5)cnc34)ccnc2cc1F [Compound 202]
26 | 62 | 15 | COc1cc2c(-c3cnn4cc(N5CC(c6ccncc6)C5)cnc34)ccnc2cc1F [Compound 209]
27 | 37 | 90 | Cc1cc(-c2cnn3cc(N4CCC(N5CCCN(C)CC5)CC4)cnc23)c2ccccc2n1 [Compound 62]
28 | 23 | 36 | CN1CCN(C2CCN(c3cnc4c(-c5ccc(C(N)=O)c6ccccc56)cnn4c3)CC2)CC1 [Compound 9]
29 | 138 | 17 | Cc1cc2c(-c3cnn4cc(N5CCC(N6CCN(C)CC6)CC5)cnc34)ccnc2cc1F [Compound 266]
30 | 424 | 295 | CN1CCN(C2CCN(c3cnc4c(-c5ccnc6cc(C#N)ccc56)cnn4c3)CC2)CC1 [Compound 263]
31 | 184 | 89 | COc1cc2c(-c3cnn4cc(N5CCOCC5)cnc34)ccnc2cc1F [Compound 192]
32 | 9 | 52 | CN1CCN(C2CCN(c3cnc4c(-c5cc(N)nc6ccccc56)cnn4c3)CC2)CC1 [Compound 229]
33 | 218 | 8 | COc1ccc2nccc(-c3cnn4cc(N5CCC(N6CCN(C)CC6)CC5)cnc34)c2c1 [Compound 20]
34 | 449 | 118 | COc1cc2c(-c3cnn4cc(N5CC(N6CCOCC6)C5)cnc34)ccnc2cc1F [Compound 193]
35 | < 20 | 22 | Cc1cc(-c2cnn3cc(N4CC(N5CCN(C)CC5)C4)cnc23)c2cccc(F)c2n1 [Compound 316]
36 | < 1 | 13 | NC(=O)c1ccc(-c2cnn3cc(N4CCN(C5CCNCC5)CC4)cnc23)c2ccccc12 [Compound 3]
37 | 685 | 104 | COc1ccc2nccc(-c3cnn4cc(N5CCC(N6CCCN(C)CC6)CC5)cnc34)c2c1 [Compound 208]
38 | 631 | 11 | COc1cc2c(-c3cnn4cc(N5CC(N6CCN(C)CC6)C5)cnc34)ccnc2cc1F [Compound 49]
39 | 70 | 14 | Cc1cc(-c2cnn3cc(N4CC(N5CCN(C)CC5)C4)cnc23)c2ccccc2n1 [Compound 222]
40 | 126 | 50 | COc1cc2c(-c3cnn4cc(N5CCC(N(C)C)CC5)cnc34)ccnc2cc1F [Compound 188]
41 | 321 | 32 | COc1cc(-c2cnn3cc(N4CCC(N5CCN(C)CC5)CC4)cnc23)cc(OC)c1OC [Compound 274]
42 | 215 | 331 | Cc1cc(-c2cnn3cc(N4CCC(N5CCN(C)CC(F)(F)C5)CC4)cnc23)c2ccccc2n1 [Compound 207]
43 | 376 | 24 | [2H]C([2H])([2H])N1CCN(C2CCN(c3cnc4c(-c5ccnc6cc(F)c(OC)cc56)cnn4c3)CC2)CC1 [Compound 45]
44 | 370 | 57 | COc1cc2c(-c3cnn4cc(N5CCC(N)CC5)cnc34)ccnc2cc1F [Compound 186]
45 | 209 | 26 | CN1CCN(C2CCN(c3cnc4c(-c5ccnc6ccc(F)cc56)cnn4c3)CC2)CC1 [Compound 251]
